Values of other authors, collected in patent US6355633B1, “Aryl sulfonic acids and derivatives as FSH antagonists” (American Home Products Corporation, priority 1999, dated 2002).

Target: T1, FSH receptor (Rattus norvegicus, UniProt P20395)
T1 construct: endogenous in cells; host or cells: primary ovarian granulosa cells of DES-treated immature Sprague-Dawley rats
T1 sequence (P20395 18-692): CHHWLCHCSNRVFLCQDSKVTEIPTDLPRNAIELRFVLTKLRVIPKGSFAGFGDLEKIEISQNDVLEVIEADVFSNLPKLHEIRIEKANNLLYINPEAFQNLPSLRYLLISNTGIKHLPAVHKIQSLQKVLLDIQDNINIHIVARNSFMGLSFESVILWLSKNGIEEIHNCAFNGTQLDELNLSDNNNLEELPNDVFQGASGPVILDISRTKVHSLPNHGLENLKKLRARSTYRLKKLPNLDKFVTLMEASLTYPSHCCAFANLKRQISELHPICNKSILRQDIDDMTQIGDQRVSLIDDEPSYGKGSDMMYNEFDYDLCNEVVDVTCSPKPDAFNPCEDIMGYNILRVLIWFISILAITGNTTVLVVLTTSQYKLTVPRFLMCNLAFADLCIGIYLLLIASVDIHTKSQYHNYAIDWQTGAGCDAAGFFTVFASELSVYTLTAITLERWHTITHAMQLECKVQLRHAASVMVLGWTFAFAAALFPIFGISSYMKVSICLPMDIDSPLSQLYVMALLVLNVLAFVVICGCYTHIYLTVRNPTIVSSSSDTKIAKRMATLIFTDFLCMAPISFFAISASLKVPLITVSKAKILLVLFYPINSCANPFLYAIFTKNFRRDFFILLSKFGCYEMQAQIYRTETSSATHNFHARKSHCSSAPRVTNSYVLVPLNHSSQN
Conditions: literature report; cited from earlier work

Cc1ccc(C(=O)Nc2ccc(S(=O)(=O)O)c3cc(S(=O)(=O)O)cc(S(=O)(=O)O)c23)cc1NC(=O)c1cccc(NC(=O)Nc2cccc(C(=O)Nc3cc(C(=O)Nc4ccc(S(=O)(=O)O)c5cc(S(=O)(=O)O)cc(S(=O)(=O)O)c45)ccc3C)c2)c1 [suramin, Suramin Sodium]
inhibition of FSH binding to its receptor: inhibit FSH binding to its receptor
